# Measurements published in ChEMBL document CHEMBL1201862, “PubChem BioAssay data set” (2004).
# Activity calls are given as the source filed them.
# How the values were obtained:
# [1] = inhibitors of non-replicating M. tuberculosis, dose response, luciferase, dry powder (AID 651620); assay type: functional; details: Mycobacterium tuberculosis
# [2] = inhibitors of non-replicating M. tuberculosis, dose response, luciferase, dry powder (AID 651619); assay type: functional; details: Mycobacterium tuberculosis
# H9c2 = assay: cells; assay type: functional, cell-based; details: Rattus norvegicus, H9c2, Myocardium;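 also: confirmatory concentration-response retest of ultra-high-throughput screening hits for modulation of myocardial damage; cell death induced by hydrogen peroxide oxidative stress; compound pretreatment for 60 min then peroxide exposure for 2 h; potency is for protecting the cells against peroxide damage rather than for killing them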
# [3] = target: Lysosomal acid glucosylceramidase (Homo sapiens, UniProt P04062); assay: Dose response cell-based high throughput screening assay to identify enhancers of beta-glucosidase activity. [Related pubchem assays: 784 ]; assay type: functional
# [4] = target: T1, Mannose-6-phosphate isomerase (Homo sapiens, UniProt P34949); assay: inhibitors of human PMI, primary screen, biochemical, fluorescence intensity, coupled assay (AID 1209)
# T1 sequence (P34949 whole entry): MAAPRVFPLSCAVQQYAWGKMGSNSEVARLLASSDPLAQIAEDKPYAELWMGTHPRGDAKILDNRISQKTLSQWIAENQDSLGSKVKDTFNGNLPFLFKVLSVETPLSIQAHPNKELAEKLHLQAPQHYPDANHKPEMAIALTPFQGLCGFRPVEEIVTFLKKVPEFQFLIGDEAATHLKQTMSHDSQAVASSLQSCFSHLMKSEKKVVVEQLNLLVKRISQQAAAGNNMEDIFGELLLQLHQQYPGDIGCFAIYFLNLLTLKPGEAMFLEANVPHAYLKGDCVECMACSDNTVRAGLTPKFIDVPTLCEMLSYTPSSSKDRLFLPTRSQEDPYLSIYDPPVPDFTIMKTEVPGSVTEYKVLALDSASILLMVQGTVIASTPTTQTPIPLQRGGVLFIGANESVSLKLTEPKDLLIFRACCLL
# [5] = growth suppression of PTEN-null colon cells, dose response, cell-based, HCT116 PTEN knockout (AID 1047); assay type: functional;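 also: HCT116 colon tumor cells with PTEN knocked out; cells exposed to compound for 60 hours before readout; potency for loss of cell viability measured by luminescence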
# [6] = growth suppression of beta-catenin-knockout colon cells, dose response, cell-based, HCT116, human colon tumor (AID 1045); assay type: functional;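 also: HCT116 colon tumor cells with beta catenin knocked out; cells exposed to compound for 60 hours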
# [7] = A Cell Based Secondary Assay To Explore Cytotoxicity of Compounds that Sensitize Mycobacterium Tuberculosis to Beta-Lactam Antibiotics.; assay type: functional
# HT-1080 = assay: cytotoxicity in HT1080 fibrosarcoma cells, cell-based, fluorescence readout (AID 620); assay type: functional; details: Homo sapiens
# [8] = inhibitors of SNCA 5'UTR-driven reporter translation, confirmation, H4 neuroglioma cells, luminescence (AID 1988); assay type: functional, cell-based
# [9] = Luminescence Cell-Based Dose Response HTS to Identify Inhibitors of 5'UTR Stem-Loop Driven Prion Protein mRNA Translation in H4 Neuroglioblastoma Cells. [Related pubchem assays: 1827 (Project Summary), 1813 (Primary HTS)]; assay type: functional
# [10] = target: Luciferin 4-monooxygenase (Photinus pyralis, UniProt P08659); assay: Counter Screen for Luciferase-based Assay Positives. [Related pubchem assays: 620, 618, 411 ]
# A-375 = assay: MITF: Counter assay: A375 proliferation Measured in Cell-Based System Using Plate Reader - 2084-03_Inhibitor_Dose_DryPowder_Activity. [Related pubchem assays (depositor defined):AID488944]; assay type: functional; details: Homo sapiens
# [11] = inhibitors of intracellular T. cruzi replication, confirmation, NIH3T3 host cells, beta-gal luminescence (AID 2044); assay type: functional, cell-based;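 also: intracellular parasites grown in NIH/3T3 mouse fibroblasts as host cells; luminescent beta-galactosidase reporter signal from transgenic T. cruzi replicating inside host cells; inhibitors lower the luminescence signal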
# [12] = target: Heat shock protein HSP 90-alpha (Homo sapiens, UniProt P07900); assay: Luminescence-based dose response biochemical high throughput screening assay for inhibitors of the Heat Shock Protein 90 (HSP90). [Related pubchem assays: 1831 (Summary AID.), 1846 (Confirmation screen.), 1789 (Primary screen.)]
# [13] = cytotoxicity toward NIH3T3 fibroblasts, dose response, counter-screen, cell-based, ATP luminescence, mouse fibroblasts (AID 2010); assay type: functional;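 also: cells exposed to compound for about 90 hours before reading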
# Vero = assay: cells; assay type: functional, cell-based; details: Chlorocebus sabaeus
# [14] = HEp-2 cell cytotoxicity, dose response, cytotoxicity control for RSV inhibitor project, HTS (AID 2410); assay type: functional; details: human respiratory syncytial virus
# [15] = THP-1 cell cytotoxicity, dose response, cytotoxicity control for Vif-APOBEC3G degradation inhibitor project, THP-1 cells (AID 1117359); assay type: functional; details: Human immunodeficiency virus 1, THP-1
# Estrogen receptor beta [16] = target: T2, Estrogen receptor beta (Homo sapiens, UniProt Q92731); assay: ERβ–SRC-3 coactivator interaction inhibitors, confirmation, orthogonal assay, biochemical, ELISA, streptavidin-HRP readout (AID 1060)
# Estrogen receptor beta [17] = target: T2, Estrogen receptor beta
# T2 sequence (Q92731 whole entry): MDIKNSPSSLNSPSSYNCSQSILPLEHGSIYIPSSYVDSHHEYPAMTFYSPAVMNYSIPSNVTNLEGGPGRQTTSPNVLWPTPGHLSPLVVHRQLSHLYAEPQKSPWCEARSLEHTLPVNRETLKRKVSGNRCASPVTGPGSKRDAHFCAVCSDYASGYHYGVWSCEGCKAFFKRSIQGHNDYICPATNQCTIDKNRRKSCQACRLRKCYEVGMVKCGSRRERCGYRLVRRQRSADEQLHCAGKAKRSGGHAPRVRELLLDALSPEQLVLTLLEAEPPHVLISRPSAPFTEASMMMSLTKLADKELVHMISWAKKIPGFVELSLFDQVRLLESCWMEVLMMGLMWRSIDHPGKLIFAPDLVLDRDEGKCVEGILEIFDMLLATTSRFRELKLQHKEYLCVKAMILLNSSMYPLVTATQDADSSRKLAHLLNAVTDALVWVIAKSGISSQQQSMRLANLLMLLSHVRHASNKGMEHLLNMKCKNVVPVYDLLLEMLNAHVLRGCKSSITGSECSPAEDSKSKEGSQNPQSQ
# Chain of Luciferin 4-monooxygenase (P08659 whole entry): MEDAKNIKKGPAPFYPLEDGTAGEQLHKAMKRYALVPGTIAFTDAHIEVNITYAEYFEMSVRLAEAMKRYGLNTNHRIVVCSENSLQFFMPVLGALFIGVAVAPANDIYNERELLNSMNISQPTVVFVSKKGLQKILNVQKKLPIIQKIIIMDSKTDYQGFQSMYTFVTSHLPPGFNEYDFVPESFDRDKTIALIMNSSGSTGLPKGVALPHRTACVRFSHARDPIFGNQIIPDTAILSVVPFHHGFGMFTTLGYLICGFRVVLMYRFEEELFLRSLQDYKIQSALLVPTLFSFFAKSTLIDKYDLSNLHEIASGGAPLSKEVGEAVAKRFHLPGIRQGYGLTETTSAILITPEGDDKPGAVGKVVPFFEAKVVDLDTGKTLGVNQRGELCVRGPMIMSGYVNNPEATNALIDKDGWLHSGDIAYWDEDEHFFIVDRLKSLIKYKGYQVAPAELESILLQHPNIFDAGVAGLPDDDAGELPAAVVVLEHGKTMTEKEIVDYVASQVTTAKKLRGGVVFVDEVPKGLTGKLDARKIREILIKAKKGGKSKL
# Chain of Lysosomal acid glucosylceramidase (P04062 whole entry): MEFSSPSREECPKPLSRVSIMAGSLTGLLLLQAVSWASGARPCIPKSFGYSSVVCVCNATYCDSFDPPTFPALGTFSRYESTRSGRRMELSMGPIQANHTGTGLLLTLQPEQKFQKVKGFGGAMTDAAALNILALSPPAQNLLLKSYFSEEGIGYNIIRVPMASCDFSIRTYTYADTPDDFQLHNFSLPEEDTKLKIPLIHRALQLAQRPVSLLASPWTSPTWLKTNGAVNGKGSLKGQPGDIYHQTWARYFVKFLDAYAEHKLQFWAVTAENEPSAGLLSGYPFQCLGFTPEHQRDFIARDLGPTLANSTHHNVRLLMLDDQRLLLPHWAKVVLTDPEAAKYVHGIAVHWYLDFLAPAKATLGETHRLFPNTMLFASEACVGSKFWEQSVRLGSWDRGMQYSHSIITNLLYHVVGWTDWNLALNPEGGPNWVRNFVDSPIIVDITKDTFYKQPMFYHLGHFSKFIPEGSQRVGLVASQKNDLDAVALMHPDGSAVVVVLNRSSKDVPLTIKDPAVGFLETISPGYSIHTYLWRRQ
smiles,measurement,setting,value
Fc1ccc(CSc2nnc(-c3cccnc3)o2)cc1,IC90,[1],1 µM (active)
same,IC90,[2],1 µM (active)
CN(CC1COc2ccccc2O1)c1nc(-c2cccnc2)nc2ccccc12 (stereo not drawn),IC50,H9c2,24.4 µM (active)
same,EC50,[3],2.65 µM (active)
COc1ccccc1N1C(=O)CC(Sc2n[nH]c(-c3cccc(C)c3)n2)C1=O (stereo not drawn),IC50,[4],48.1 µM (active)
COc1ccc(OC)c(C2CC(c3c(O)nc4ccc(Cl)cc4c3-c3ccccc3)=NN2S(C)(=O)=O)c1 (stereo not drawn),EC50,[5],9.08 µM (active)
same,EC50,[6],11.3 µM (active)
same,CC50,[7],> 40 µM (active)
Cc1csc(NC(=O)C2COc3ccccc3O2)n1 (stereo not drawn),EC50,HT-1080,> 50 µM (not active)
same,EC50,[8],7.32 µM (active)
same,EC50,[9],10.7 µM (inconclusive)
same,EC50,[10],0.56 µM (active)
Cc1cc(C)c2nc(N3CCC(C(=O)NCCCN4CC(C)CC(C)C4)CC3)sc2c1 (stereo not drawn),AC50,A-375,21.5 µM (active)
same,EC50,[11],1.22 µM (active)
same,IC50,[12],8.62 µM (active)
same,EC50,[13],> 60 µM (not active)
Nc1c(-c2ccccc2)cnn1-c1ccc(C(=O)O)cc1,IC50,[12],5.93 µM (active)
Nc1ccc(C(=O)OCc2nc3cc4ccccc4cc3[nH]2)cc1,IC50,Vero,3.67 µM (active)
same,IC50,cells,23.6 µM (active)
same,CC50,[14],36.6 µM (active)
Cc1ccc2c(c1)CCCN2C(=O)c1cc(C)c(C)s1,CC50,[15],> 40 µM (active)
CC12CCCCC1(O)[N+](=O)C1=C(CCCC1)N2[O-] (stereo not drawn),IC50,Estrogen receptor beta [16],2.85 µM (not active)
same,IC50,Estrogen receptor beta [17],10.9 µM (active)
